Laboratory results from ChEMBL document CHEMBL1201862, “PubChem BioAssay data set” (2004).
Calls of active or inactive are those of the source.

Columns and labels:
Cytochrome P450 2D6 = Cytochrome P450 2D6 (Homo sapiens, UniProt P10635);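 note: CYP2D6 member of a cytochrome P450 panel assay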
Cytochrome P450 2C19 = Cytochrome P450 2C19 (Homo sapiens, UniProt P33261); assay: Cytochrome panel assay with activity outcomes. Panel member name: p450-cyp2c19 Compounds with AC50 equal or less than 10 uM are considered active; assay type: functional; settings: read-out: AC50
[1] = target: T1, Short transient receptor potential channel 4 (Mus musculus, UniProt Q9QUQ5); assay: mouse TRPC4 channel inhibitors, dose response, cell-based, HEK293 TRPC4/mu-opioid, Fluo-4 calcium (AID 434942); assay type: functional;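 note: potency of inhibitors blocking the TRPC4 calcium response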
T1 sequence (Q9QUQ5 whole entry): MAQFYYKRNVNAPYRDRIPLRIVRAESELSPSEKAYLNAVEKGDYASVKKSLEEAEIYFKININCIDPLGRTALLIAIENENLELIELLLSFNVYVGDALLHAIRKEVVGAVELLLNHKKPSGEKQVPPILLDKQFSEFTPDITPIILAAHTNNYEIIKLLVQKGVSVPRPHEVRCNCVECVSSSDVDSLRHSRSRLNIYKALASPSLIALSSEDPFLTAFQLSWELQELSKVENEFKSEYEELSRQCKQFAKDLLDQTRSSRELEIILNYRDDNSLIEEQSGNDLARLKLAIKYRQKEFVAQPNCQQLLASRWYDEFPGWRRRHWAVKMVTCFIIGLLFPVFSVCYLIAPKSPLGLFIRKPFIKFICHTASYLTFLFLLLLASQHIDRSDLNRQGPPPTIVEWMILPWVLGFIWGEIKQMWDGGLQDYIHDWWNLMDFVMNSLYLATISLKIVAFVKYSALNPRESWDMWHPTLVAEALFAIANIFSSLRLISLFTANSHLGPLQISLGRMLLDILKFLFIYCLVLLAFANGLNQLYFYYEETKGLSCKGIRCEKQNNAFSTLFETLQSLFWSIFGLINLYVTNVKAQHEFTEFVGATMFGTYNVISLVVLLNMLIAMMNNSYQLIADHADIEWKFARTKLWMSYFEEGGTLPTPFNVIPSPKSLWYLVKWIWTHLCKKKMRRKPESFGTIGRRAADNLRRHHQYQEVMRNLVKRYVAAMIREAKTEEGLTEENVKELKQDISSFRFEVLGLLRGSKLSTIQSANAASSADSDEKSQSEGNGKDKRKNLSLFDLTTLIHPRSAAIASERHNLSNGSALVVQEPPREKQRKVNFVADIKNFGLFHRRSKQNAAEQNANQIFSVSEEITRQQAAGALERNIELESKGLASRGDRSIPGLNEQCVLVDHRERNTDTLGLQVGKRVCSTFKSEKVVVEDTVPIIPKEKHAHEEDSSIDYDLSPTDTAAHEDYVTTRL

Nonstructural protein 1 = Nonstructural protein 1 (Influenza A virus, UniProt Q194T2); assay type: functional, Influenza A virus (A/California/07/2009(H1N1))
[2] = target: T2, Histone-lysine N-methyltransferase NSD2 (Homo sapiens, UniProt O96028); assay type: biochemical
T2 sequence (O96028 whole entry): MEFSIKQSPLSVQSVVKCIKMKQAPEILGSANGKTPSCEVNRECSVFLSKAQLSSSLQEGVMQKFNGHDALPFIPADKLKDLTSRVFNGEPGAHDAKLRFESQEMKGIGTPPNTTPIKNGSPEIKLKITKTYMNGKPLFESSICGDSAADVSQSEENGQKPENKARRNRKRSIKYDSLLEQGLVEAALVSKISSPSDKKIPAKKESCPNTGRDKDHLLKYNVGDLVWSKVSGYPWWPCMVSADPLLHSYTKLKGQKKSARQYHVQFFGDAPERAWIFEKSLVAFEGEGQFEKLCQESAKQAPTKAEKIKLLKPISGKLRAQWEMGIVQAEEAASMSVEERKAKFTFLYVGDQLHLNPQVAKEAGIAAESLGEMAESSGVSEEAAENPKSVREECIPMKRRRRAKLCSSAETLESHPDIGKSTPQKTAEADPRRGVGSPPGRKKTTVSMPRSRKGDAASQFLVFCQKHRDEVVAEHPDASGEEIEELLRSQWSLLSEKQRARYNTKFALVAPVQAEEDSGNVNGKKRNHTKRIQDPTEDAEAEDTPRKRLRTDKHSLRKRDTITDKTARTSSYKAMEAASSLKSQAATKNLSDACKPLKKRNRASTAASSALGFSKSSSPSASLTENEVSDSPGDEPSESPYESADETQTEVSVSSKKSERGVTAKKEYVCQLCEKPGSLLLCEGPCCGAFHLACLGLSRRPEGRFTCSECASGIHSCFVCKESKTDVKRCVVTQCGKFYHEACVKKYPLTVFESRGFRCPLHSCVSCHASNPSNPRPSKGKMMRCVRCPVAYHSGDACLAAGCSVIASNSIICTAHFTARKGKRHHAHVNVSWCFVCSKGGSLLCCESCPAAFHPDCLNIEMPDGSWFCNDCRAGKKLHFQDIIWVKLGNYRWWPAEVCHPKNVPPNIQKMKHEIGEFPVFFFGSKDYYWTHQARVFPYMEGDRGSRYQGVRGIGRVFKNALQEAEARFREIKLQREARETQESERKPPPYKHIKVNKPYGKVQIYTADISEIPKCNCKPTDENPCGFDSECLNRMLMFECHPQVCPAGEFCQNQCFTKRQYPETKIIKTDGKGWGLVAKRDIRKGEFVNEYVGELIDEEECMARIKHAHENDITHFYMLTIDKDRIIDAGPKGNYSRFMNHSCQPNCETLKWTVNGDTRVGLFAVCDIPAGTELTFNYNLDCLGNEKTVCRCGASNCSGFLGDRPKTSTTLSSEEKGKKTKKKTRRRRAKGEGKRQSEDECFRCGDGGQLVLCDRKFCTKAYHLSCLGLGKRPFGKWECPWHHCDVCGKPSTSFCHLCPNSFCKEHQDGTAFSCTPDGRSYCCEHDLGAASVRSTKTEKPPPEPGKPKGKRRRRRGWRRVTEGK

[3] = Shn3 3'UTR reporter inhibitors, dose response, cell-based, Clone20 osteoblasts, firefly luciferase, cherry-picked (AID 624132); assay type: functional;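 note: firefly luciferase luminescence from reporter carrying the Shn3 3'UTR in osteoblasts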
[4] = control 3'UTR Renilla luciferase suppression, dose response, counter-screen for Shn3 inhibitor project, cell-based, Clone20-Shn3RL, cherry-picked (AID 624133); assay type: functional
[5] = target: Glucose-6-phosphate 1-dehydrogenase (Homo sapiens, UniProt P11413); assay: human G6PD enzyme inhibitors, dose response, selectivity assay for P. falciparum G6PD inhibitor project, biochemical, fluorescence (AID 504792); assay type: functional
[6] = target: T3, Sentrin-specific protease 8 (Homo sapiens, UniProt Q96LD8); assay type: functional;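 note: luminescence read-out of SENP8 inhibition, dose-response confirmation following an ultra-high-throughput screen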
T3 sequence (Q96LD8 whole entry): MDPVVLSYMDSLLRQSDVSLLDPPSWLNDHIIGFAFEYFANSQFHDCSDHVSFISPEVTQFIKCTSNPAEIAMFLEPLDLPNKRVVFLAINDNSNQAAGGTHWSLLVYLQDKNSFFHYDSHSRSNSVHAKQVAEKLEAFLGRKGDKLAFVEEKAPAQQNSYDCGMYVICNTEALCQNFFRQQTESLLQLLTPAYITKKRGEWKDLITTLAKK

Caspase-3 = target: T4, Caspase-3 (Homo sapiens, UniProt P42574); assay type: functional;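 note: Dose-response selectivity test against caspase-3 for candidate inhibitors of sentrin-specific proteases (SENPs)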
T4 sequence (P42574 whole entry): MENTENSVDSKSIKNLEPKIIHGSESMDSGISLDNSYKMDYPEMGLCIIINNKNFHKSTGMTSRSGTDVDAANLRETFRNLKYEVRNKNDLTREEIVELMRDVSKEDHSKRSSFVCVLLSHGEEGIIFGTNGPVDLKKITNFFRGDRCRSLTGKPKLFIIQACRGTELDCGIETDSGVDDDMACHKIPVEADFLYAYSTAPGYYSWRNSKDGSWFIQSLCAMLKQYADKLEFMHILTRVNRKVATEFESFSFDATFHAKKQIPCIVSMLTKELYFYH

[7] = target: T5, Sentrin-specific protease 7 (Homo sapiens, UniProt Q9BQF6); assay type: functional;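 note: Luminescence-based dose-response confirmation of ultra-high-throughput screening hits, measuring inhibition of SENP7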
T5 sequence (Q9BQF6 whole entry): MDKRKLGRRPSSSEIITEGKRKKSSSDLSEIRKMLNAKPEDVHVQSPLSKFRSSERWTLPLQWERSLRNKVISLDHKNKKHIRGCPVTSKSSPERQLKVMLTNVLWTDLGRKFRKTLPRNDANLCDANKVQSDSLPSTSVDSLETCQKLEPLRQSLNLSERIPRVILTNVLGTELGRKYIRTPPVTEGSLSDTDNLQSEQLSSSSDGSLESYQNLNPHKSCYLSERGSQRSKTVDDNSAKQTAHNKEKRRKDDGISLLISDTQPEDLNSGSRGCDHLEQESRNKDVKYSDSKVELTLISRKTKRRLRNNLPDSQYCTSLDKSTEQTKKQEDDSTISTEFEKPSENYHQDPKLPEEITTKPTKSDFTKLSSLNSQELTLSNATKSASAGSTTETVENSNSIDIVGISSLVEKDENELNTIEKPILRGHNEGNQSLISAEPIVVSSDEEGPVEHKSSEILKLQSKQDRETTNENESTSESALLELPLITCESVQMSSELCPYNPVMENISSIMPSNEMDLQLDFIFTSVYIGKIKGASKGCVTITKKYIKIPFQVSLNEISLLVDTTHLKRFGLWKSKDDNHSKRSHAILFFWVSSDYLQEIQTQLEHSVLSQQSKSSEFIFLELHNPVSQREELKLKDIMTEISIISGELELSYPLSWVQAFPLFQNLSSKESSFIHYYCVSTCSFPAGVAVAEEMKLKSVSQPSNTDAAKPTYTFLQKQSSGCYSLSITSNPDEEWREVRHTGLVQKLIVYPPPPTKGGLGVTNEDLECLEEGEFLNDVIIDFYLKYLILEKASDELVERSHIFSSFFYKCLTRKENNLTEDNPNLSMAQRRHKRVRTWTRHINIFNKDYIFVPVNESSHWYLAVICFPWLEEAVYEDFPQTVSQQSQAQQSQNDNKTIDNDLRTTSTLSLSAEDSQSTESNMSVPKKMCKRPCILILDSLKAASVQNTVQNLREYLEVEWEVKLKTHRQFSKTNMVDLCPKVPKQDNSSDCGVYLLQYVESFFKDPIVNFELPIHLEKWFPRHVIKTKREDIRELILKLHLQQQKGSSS

[8] = target: T6, Sentrin-specific protease 6 (Homo sapiens, UniProt Q9GZR1); assay type: functional;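 note: Luminescence-based dose-response confirmatory assay of SENP6 inhibition, following up an ultra-high-throughput screen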
T6 sequence (Q9GZR1 whole entry): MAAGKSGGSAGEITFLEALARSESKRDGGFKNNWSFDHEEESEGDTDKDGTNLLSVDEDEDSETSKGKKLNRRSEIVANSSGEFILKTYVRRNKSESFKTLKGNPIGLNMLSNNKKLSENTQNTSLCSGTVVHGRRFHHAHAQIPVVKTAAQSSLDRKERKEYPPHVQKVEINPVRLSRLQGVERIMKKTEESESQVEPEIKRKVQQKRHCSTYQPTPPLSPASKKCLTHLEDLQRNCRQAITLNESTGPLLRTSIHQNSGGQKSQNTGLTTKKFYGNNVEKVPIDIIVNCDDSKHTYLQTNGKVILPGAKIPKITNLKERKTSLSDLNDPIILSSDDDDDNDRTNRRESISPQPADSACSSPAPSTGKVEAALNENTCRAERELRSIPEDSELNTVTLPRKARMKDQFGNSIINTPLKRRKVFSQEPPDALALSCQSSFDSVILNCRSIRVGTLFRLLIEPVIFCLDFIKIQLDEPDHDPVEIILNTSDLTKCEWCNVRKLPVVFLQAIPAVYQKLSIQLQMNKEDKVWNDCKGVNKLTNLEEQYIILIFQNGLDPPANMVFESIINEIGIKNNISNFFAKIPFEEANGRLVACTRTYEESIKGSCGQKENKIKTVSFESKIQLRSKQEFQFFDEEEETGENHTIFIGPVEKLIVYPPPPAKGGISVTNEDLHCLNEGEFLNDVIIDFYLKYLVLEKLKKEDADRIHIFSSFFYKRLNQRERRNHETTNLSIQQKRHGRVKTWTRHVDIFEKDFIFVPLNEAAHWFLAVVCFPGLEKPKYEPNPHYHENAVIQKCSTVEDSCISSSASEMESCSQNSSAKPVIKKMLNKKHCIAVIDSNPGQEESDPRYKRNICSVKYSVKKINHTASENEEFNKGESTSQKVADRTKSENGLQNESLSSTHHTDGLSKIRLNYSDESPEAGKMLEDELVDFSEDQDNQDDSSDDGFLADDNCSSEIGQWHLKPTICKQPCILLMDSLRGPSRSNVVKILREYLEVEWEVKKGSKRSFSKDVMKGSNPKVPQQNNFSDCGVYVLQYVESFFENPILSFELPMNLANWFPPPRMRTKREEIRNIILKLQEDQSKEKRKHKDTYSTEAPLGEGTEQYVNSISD

[9] = inhibitors of intracellular T. cruzi replication, confirmation, NIH3T3 host cells, beta-gal luminescence (AID 2044); assay type: functional, cell-based;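 note: intracellular parasites grown in NIH/3T3 mouse fibroblasts as host cells; luminescent beta-galactosidase reporter signal from transgenic T. cruzi replicating inside host cells; inhibitors lower the luminescence signal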
[10] = cytotoxicity toward NIH3T3 fibroblasts, dose response, counter-screen, cell-based, ATP luminescence, mouse fibroblasts (AID 2010); assay type: functional;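 note: cells exposed to compound for about 90 hours before reading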

Chain of Nonstructural protein 1 (Q194T2 whole entry): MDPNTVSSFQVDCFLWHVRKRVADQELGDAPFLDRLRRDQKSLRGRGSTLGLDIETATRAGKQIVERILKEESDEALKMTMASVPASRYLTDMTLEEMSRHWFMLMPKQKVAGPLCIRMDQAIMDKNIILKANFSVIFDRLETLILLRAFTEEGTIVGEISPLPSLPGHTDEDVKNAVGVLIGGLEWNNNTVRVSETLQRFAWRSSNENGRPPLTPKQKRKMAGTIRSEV
Chain of Cytochrome P450 2D6 (P10635 whole entry): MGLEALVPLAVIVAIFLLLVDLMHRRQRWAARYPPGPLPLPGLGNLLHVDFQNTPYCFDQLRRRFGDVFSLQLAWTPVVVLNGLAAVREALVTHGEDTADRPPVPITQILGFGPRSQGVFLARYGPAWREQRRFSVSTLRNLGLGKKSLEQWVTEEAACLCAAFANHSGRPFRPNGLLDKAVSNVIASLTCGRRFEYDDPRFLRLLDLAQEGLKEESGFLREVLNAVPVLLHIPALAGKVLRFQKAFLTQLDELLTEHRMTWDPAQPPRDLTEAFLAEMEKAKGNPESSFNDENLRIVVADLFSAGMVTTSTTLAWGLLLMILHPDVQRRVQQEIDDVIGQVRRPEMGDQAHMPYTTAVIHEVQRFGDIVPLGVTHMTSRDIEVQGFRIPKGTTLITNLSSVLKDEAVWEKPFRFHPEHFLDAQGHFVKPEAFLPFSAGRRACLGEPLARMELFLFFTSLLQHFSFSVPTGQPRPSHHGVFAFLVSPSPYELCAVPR
Chain of Cytochrome P450 2C19 (P33261 whole entry): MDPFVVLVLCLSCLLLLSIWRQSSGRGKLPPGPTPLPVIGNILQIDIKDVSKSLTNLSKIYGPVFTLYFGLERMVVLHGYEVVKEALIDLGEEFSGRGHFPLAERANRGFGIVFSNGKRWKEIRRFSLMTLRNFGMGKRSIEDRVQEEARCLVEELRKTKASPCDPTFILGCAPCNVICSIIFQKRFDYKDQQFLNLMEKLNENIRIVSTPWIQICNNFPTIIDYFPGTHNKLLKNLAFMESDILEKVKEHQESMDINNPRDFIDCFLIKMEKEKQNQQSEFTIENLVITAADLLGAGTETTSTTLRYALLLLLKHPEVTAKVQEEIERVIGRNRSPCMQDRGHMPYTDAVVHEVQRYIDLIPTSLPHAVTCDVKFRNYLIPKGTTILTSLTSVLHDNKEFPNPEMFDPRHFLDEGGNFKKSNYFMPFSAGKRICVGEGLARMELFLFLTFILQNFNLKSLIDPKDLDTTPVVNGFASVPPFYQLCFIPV
Chain of Glucose-6-phosphate 1-dehydrogenase (P11413 whole entry): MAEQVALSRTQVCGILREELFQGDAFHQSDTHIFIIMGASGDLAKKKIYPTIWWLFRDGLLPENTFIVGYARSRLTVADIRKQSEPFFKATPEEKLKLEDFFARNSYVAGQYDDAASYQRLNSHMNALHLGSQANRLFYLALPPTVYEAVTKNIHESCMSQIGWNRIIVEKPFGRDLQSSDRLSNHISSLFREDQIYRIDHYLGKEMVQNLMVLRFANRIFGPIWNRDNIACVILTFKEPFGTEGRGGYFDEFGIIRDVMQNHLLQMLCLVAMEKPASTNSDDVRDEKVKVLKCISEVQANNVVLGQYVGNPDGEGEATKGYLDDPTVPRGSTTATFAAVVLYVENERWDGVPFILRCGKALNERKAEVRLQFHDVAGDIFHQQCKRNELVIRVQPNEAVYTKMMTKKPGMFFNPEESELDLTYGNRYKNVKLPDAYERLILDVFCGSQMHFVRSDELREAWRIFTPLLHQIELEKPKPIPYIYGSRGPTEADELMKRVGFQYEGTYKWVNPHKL

SMILES: O=C(CSc1nnc(-c2ccc(Cl)cc2Cl)n1C1CCCCC1)NC1CCS(=O)(=O)C1 (configuration not stated)
- AC50 (Cytochrome P450 2D6): 35.5 µM (inconclusive)
- AC50 (Cytochrome P450 2C19): 39.8 µM (inconclusive)
- EC50 [1]: 1.68 µM (active)

SMILES: CN(C)c1ccc(CN2CC=C(c3ccc(F)cc3)CC2)cc1
- IC50 (Nonstructural protein 1): 50.2 µM (active)
- AC50 [2]: > 20 µM (inactive)

SMILES: CCC(O)(c1ccc(OC)cc1)C(CN1CCOCC1)c1ccccc1 (configuration not stated)
- EC50 [1]: 5.96 µM (active)

SMILES: O=[N+]([O-])c1ccc(C[n+]2cccc3ccc4cccnc4c32)cc1
- IC50 (Nonstructural protein 1): 7.75 µM (active)

SMILES: O=C(CSc1nnc(-c2ccc(Cl)cc2Cl)n1C1CCCCC1)N1CCCC1
- AC50 [3]: > 70 µM (inactive)
- AC50 [4]: 23 µM (active)
- EC50 [1]: 2.37 µM (active)

SMILES: COc1cc(CNc2ccc3[nH]c(O)nc3c2)ccc1OCc1ccccc1
- IC50 [5]: > 80 µM (inactive)

SMILES: C=CCN1CCN(C(c2cccc(OC)c2OC)c2nnnn2CCC(C)C)CC1 (configuration not stated)
- EC50 [1]: 1.68 µM (active)

SMILES: Fc1ccccc1COc1ccc(Br)cc1CNCC1CCCO1 (configuration not stated)
- EC50 [1]: 0.944 µM (active)

SMILES: COc1ccc(COc2ccc3c(C)cc(=O)oc3c2)cc1
- IC50 [6]: 32.3 µM (active)
- IC50 (Caspase-3): 20 µM (active)
- IC50 [7]: 9.04 µM (active)
- IC50 [8]: 21.6 µM (active)

SMILES: CN1c2ccccc2N(C)C1(C)c1cccc2ccccc12
- EC50 [9]: 0.544 µM (active)
- IC50 (Nonstructural protein 1): 39.3 µM (active)
- EC50 [10]: > 30 µM (not active)

SMILES: COc1ccccc1N1CCN(CCCNC(=O)Nc2ccccc2)CC1
- EC50 [1]: 1.88 µM (active)

SMILES: COc1cc(O)c(C(CCN2CCN(c3ccccc3)CC2)c2ccc(N(C)C)cc2)c(OC)c1 (configuration not stated)
- IC50 (Nonstructural protein 1): 18.2 µM (active)
